PubChem BioAssay (NCI)
Several values for one entry are separate records, joined by “and”; a condition that tells them apart may be missing. Equal values may be shown once.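 Values below derive from 48-hour exposures of cells grown in 96-well plates, with endpoints linearly interpolated between the two concentrations bracketing the appropriate inhibition level. GI50: concentration for 50% inhibition of growth. TGI: concentration producing complete growth inhibition.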

Columns and labels:
Assay in all cases: inhibition of tumour cell growth, NCI panel, 48 h
A498 renal = tested on: A498 renal
PC-3 prostate = tested on: PC-3 prostate
OVCAR-8 ovarian = tested on: OVCAR-8 ovarian
HL-60(TB) leukemia = tested on: HL-60(TB) leukemia
UACC-257 melanoma = tested on: UACC-257 melanoma
CAKI-1 renal = tested on: CAKI-1 renal
SNB-19 CNS = tested on: SNB-19 CNS
EKVX NSCLC = tested on: EKVX NSCLC
ACHN renal = tested on: ACHN renal
OVCAR-5 ovarian = tested on: OVCAR-5 ovarian
HCC-2998 colon = tested on: HCC-2998 colon
COLO 205 colon = tested on: COLO 205 colon
BT-549 breast = tested on: BT-549 breast
KM12 colon = tested on: KM12 colon
UACC-62 melanoma = tested on: UACC-62 melanoma
NCI-H522 lung = tested on: NCI-H522 lung
UO-31 renal = tested on: UO-31 renal
HOP-92 NSCLC = tested on: HOP-92 NSCLC
OVCAR-3 ovarian = tested on: OVCAR-3 ovarian
SF-295 CNS = tested on: SF-295 CNS
SF-539 CNS = tested on: SF-539 CNS
NCI-H460 lung = tested on: NCI-H460 lung
HCT-116 colon = tested on: HCT-116 colon
SK-MEL-28 melanoma = tested on: SK-MEL-28 melanoma
NCI/ADR-RES ovarian = tested on: NCI/ADR-RES ovarian
786-0 renal = tested on: 786-0 renal
A549 NSCLC = tested on: A549 NSCLC
RXF 393 renal = tested on: RXF 393 renal
T-47D breast = tested on: T-47D breast
MOLT-4 leukemia = tested on: MOLT-4 leukemia
DU-145 prostate = tested on: DU-145 prostate
MCF7 breast = tested on: MCF7 breast
SK-OV-3 ovarian = tested on: SK-OV-3 ovarian
HT29 colon = tested on: HT29 colon
SK-MEL-5 melanoma = tested on: SK-MEL-5 melanoma
MDA-MB-231 breast = tested on: MDA-MB-231 breast
M14 melanoma = tested on: M14 melanoma
SN12C renal = tested on: SN12C renal
HOP-62 NSCLC = tested on: HOP-62 NSCLC
TK-10 renal = tested on: TK-10 renal
RPMI-8226 leukemia = tested on: RPMI-8226 leukemia
SF-268 CNS = tested on: SF-268 CNS
OVCAR-4 ovarian = tested on: OVCAR-4 ovarian
U251 CNS = tested on: U251 CNS
K-562 leukemia = tested on: K-562 leukemia
NCI-H226 lung = tested on: NCI-H226 lung
LOX IMVI melanoma = tested on: LOX IMVI melanoma
SK-MEL-2 melanoma = tested on: SK-MEL-2 melanoma
CCRF-CEM leukemia = tested on: CCRF-CEM leukemia
SNB-75 CNS = tested on: SNB-75 CNS
IGROV1 ovarian = tested on: IGROV1 ovarian
HS 578T breast = tested on: HS 578T breast
HCT-15 colon = tested on: HCT-15 colon
SR leukemia = tested on: SR leukemia
SW-620 colon = tested on: SW-620 colon
NCI-H23 lung = tested on: NCI-H23 lung
MDA-MB-435 = tested on: MDA-MB-435
MALME-3M melanoma = tested on: MALME-3M melanoma

NC1(c2ccc(-c3nc4ccn5c(=O)[nH]nc5c4cc3-c3ccccc3)cc2)CCC1
GI50 (A498 renal): 0.0411 µM and 0.0426 µM and 0.112 µM
TGI (A498 renal): 0.432 µM and 0.319 µM and 0.865 µM
GI50 (PC-3 prostate): 0.0523 µM and 0.135 µM and 0.141 µM
TGI (PC-3 prostate): 17 µM and > 10 µM and 17.3 µM
GI50 (OVCAR-8 ovarian): 12.6 µM and > 10 µM and 14.9 µM
TGI (OVCAR-8 ovarian): 28.2 µM and > 10 µM and 30.8 µM
GI50 (HL-60(TB) leukemia): 9.79 µM and > 7.36 µM and 12.3 µM
TGI (HL-60(TB) leukemia): 27.2 µM and > 10 µM and 28.8 µM
GI50 (UACC-257 melanoma): 1.54 µM and > 10 µM and 12.7 µM
TGI (UACC-257 melanoma): 5.42 µM and > 10 µM and 26.8 µM
GI50 (CAKI-1 renal): 5.01 µM and > 2.69 µM and 4.86 µM
TGI (CAKI-1 renal): 20 µM and > 10 µM and 20.7 µM
GI50 (SNB-19 CNS): 2.64 µM and 3.84 µM and 5.83 µM
TGI (SNB-19 CNS): 15.6 µM and > 10 µM and 20.2 µM
GI50 (EKVX NSCLC): 3.65 µM and > 10 µM and 1.41 µM
TGI (EKVX NSCLC): 22.8 µM and > 10 µM and 18.5 µM
GI50 (ACHN renal): 3.05 µM and > 10 µM and 10.5 µM
TGI (ACHN renal): 14.9 µM and > 10 µM and 22.4 µM
GI50 (OVCAR-5 ovarian): 11.6 µM and > 10 µM and 12.6 µM
TGI (OVCAR-5 ovarian): 24.7 µM and > 10 µM and 25.7 µM
GI50 (HCC-2998 colon): 3.35 µM and > 6.01 µM and 3.61 µM
TGI (HCC-2998 colon): 18.6 µM and > 10 µM and 19.7 µM
GI50 (COLO 205 colon): 0.461 µM and 0.651 µM and 1.81 µM
TGI (COLO 205 colon): 12.4 µM and > 10 µM and 18.4 µM
GI50 (BT-549 breast): 0.462 µM and 0.621 µM and 1.57 µM
TGI (BT-549 breast): 13.6 µM and > 10 µM and 16 µM
GI50 (KM12 colon): 6.86 µM and > 8.08 µM and 12.2 µM
TGI (KM12 colon): 20.8 µM and > 10 µM and 25.8 µM
GI50 (UACC-62 melanoma): 0.255 µM and 0.804 µM and 0.811 µM
TGI (UACC-62 melanoma): 15.3 µM and > 10 µM and 18 µM
GI50 (NCI-H522 lung): 7.95 µM and > 10 µM and 11.6 µM
TGI (NCI-H522 lung): 23.2 µM and > 10 µM and 26 µM
GI50 (UO-31 renal): 0.765 µM and 0.344 µM and 1.08 µM
TGI (UO-31 renal): 18.3 µM and > 10 µM and 3.06 µM
GI50 (HOP-92 NSCLC): 0.035 µM and 0.113 µM and 0.163 µM
TGI (HOP-92 NSCLC): 3.5 µM and > 2.63 µM and 5.61 µM
GI50 (OVCAR-3 ovarian): 0.607 µM and 0.841 µM and 0.814 µM
TGI (OVCAR-3 ovarian): 18.9 µM and > 10 µM and 18.5 µM
GI50 (SF-295 CNS): 0.267 µM and 0.698 µM and 0.611 µM
TGI (SF-295 CNS): 5.22 µM and > 10 µM and 13.9 µM
GI50 (SF-539 CNS): 0.197 µM and 1.71 µM and 1.63 µM
TGI (SF-539 CNS): 5.77 µM and > 10 µM and 14 µM
GI50 (NCI-H460 lung): 0.231 µM and 0.679 µM and 1.19 µM
TGI (NCI-H460 lung): 17.7 µM and > 10 µM and 18.5 µM
GI50 (HCT-116 colon): 5.49 µM and > 6.86 µM and 11.3 µM
TGI (HCT-116 colon): 19.3 µM and > 10 µM and 27.8 µM
GI50 (SK-MEL-28 melanoma): 1.27 µM and > 10 µM and 7.49 µM
TGI (SK-MEL-28 melanoma): 5.37 µM and > 10 µM and 21.6 µM
GI50 (NCI/ADR-RES ovarian): 11.9 µM and > 10 µM and 12.8 µM
TGI (NCI/ADR-RES ovarian): 26.2 µM and > 10 µM and 26.9 µM
GI50 (786-0 renal): 0.816 µM and 0.697 µM and 1.15 µM
TGI (786-0 renal): 11.9 µM and > 9.66 µM and 14.7 µM
GI50 (A549 NSCLC): 4.33 µM and 6.07 µM and 7.9 µM
TGI (A549 NSCLC): 20.5 µM and > 10 µM and 23.6 µM
GI50 (RXF 393 renal): 0.0971 µM and 0.417 µM and 0.129 µM
TGI (RXF 393 renal): 1.37 µM and 5.66 µM and 1.11 µM
GI50 (T-47D breast): 0.0198 µM and 0.0234 µM and 0.0639 µM
GI50 (MOLT-4 leukemia): 0.353 µM and 0.531 µM and 0.313 µM
TGI (MOLT-4 leukemia): 14.1 µM and > 10 µM and 10.9 µM
GI50 (DU-145 prostate): 13.6 µM and > 10 µM and 13.3 µM
TGI (DU-145 prostate): 26.7 µM and > 10 µM and 26.4 µM
TGI (MCF7 breast): 6.37 µM and > 10 µM and 17.5 µM
GI50 (SK-OV-3 ovarian): 0.212 µM and 0.191 µM and 0.449 µM
TGI (SK-OV-3 ovarian): 15.1 µM and > 5.49 µM and 14.9 µM
GI50 (HT29 colon): 1.5 µM and 2.34 µM and 3.02 µM
TGI (HT29 colon): 9.7 µM and > 10 µM and 24.6 µM
GI50 (SK-MEL-5 melanoma): 2.09 µM and > 10 µM and 11.1 µM
TGI (SK-MEL-5 melanoma): 5.79 µM and > 10 µM and 23.2 µM
GI50 (MDA-MB-231 breast): 10.7 µM and > 10 µM and 13.5 µM
TGI (MDA-MB-231 breast): 23.8 µM and > 10 µM and 26.7 µM
GI50 (M14 melanoma): 4.69 µM and > 10 µM and 13.1 µM
TGI (M14 melanoma): 9.71 µM and > 10 µM and 28.7 µM
GI50 (SN12C renal): 6.95 µM and > 10 µM and 10.6 µM
TGI (SN12C renal): 21.7 µM and > 10 µM and 22.7 µM
GI50 (HOP-62 NSCLC): 3.84 µM and > 10 µM and 10.7 µM
TGI (HOP-62 NSCLC): 15.9 µM and > 10 µM and 26.2 µM
GI50 (TK-10 renal): 0.506 µM and 0.477 µM and 0.908 µM
TGI (TK-10 renal): 21.2 µM and > 10 µM and 18.4 µM
GI50 (RPMI-8226 leukemia): 7 µM and > 8.21 µM and 6.27 µM
TGI (RPMI-8226 leukemia): 23.2 µM and > 10 µM and 28.4 µM
GI50 (SF-268 CNS): 12.2 µM and > 10 µM and 12.3 µM
TGI (SF-268 CNS): 26.4 µM and > 10 µM and 27 µM
GI50 (OVCAR-4 ovarian): 5.57 µM and > 10 µM and 14.7 µM
TGI (OVCAR-4 ovarian): 14 µM and > 10 µM and 30.5 µM
GI50 (U251 CNS): 2.34 µM and 2.68 µM and 3.65 µM
TGI (U251 CNS): 14.7 µM and > 10 µM and 20 µM
GI50 (K-562 leukemia): 5.43 µM and > 5.59 µM and 9.99 µM
TGI (K-562 leukemia): 18.2 µM and > 10 µM and 29.1 µM
GI50 (NCI-H226 lung): 12.2 µM and > 10 µM and 11.6 µM
TGI (NCI-H226 lung): 25.9 µM and > 10 µM and 26.4 µM
GI50 (LOX IMVI melanoma): 4.94 µM and > 6.27 µM and 11.8 µM
TGI (LOX IMVI melanoma): 16.5 µM and > 10 µM and 24.6 µM
GI50 (SK-MEL-2 melanoma): 14.9 µM and > 10 µM and 15.7 µM
TGI (SK-MEL-2 melanoma): 30.2 µM and > 10 µM and 31.4 µM
GI50 (CCRF-CEM leukemia): 0.362 µM and 0.488 µM and 0.402 µM
TGI (CCRF-CEM leukemia): 15.6 µM and > 10 µM and 13.7 µM
GI50 (SNB-75 CNS): 0.051 µM and 0.105 µM and 0.12 µM
TGI (SNB-75 CNS): 3.35 µM and 2.62 µM and 4.53 µM
GI50 (IGROV1 ovarian): 0.0878 µM and 0.198 µM and 0.407 µM
TGI (IGROV1 ovarian): 13.6 µM and > 10 µM and 9.33 µM
GI50 (HS 578T breast): 0.171 µM and 0.184 µM and 0.28 µM
TGI (HS 578T breast): 7.4 µM and > 2.73 µM and 4.3 µM
GI50 (HCT-15 colon): 2.92 µM and > 6.16 µM and 10.4 µM
TGI (HCT-15 colon): 17.5 µM and > 10 µM and 23.9 µM
GI50 (SR leukemia): 7.28 µM and > 4.45 µM and 8.51 µM
TGI (SR leukemia): 19.6 µM and 9.81 µM and 33.2 µM
GI50 (SW-620 colon): 14.2 µM and > 10 µM and 15 µM
TGI (SW-620 colon): 28.7 µM and > 10 µM and 29.8 µM
GI50 (NCI-H23 lung): 13.1 µM and > 10 µM and 13.2 µM
TGI (NCI-H23 lung): 28.3 µM and > 10 µM and 27.2 µM
GI50 (MDA-MB-435): 5.47 µM and > 10 µM and 10.8 µM
TGI (MDA-MB-435): 21.8 µM and > 10 µM and 23 µM
TGI (MALME-3M melanoma): 3 µM and > 10 µM and 24.3 µM
